Legend:
Assay type in all cases: biochemical
CDK9/cyclinTl = CDK9/cyclinTl (Homo sapiens, UniProt P50750); assay: Determination of CDK activity (Caliper mobility shift, FAM-P8 peptide): CDK9; conditions: CDK9/cyclinTl; read-out: CDK9 enzymatic inhibitory activity (IC50)
Procedure: (§1) In vitro, CDK (CDK4, CDK6, CDK1, CDK2, CDK7, and CDK9) kinase activity was tested by the following method.
(§2) 1. Prepared 1× Kinase Buffer and Stop Buffer for the Test
(§3) 3) 1× Kinase Base Buffer (CDK7 and 9).
(§4) 1) Diluted the compound to 50 times of the maximum concentration with 100% DMSO. For example, if the desired maximum inhibitory concentration is 10 μM, then a DMSO solution of 500 μM concentration is required.
(§5) 2) Transferred the compound to a 96-well plate and serially diluted the compound from a 100% DMSO solution at a ratio of 30 μm to 60 μm for a total of 10 concentrations gradients. 3) Transferred 100 μm of 100% DMSO to two empty wells as a no compound control and a no enzyme control.
(§6) 1) Transferred 5 μm of each compound from the 96-well intermediate plate to a 384-well plate. […] A2 of the 96-well plate was transferred to A3 and A4 of the 384-well plate, and so on.
(§7) 1) Prepared a 2.5× enzyme solution: added kinase into 1× kinase base buffer.
(§8) 2) Prepared a 2.5× peptide solution: added FAM-labeled peptide and ATP into the 1× kinase base buffer.
(§9) 3) Transferred the 2.5× enzyme solution to the assay plate: Assay plate already contained 5 μm of 10% DMSO and transferred 10 μm of 2.5× enzyme solution to each well.
(§10) 4) Incubated at room temperature for 10 min.
(§11) 5) Transferred the 2.5× peptide solution to the assay plate: added 10 μm of 2.5× peptide solution to each well of the 384-well assay plate.
(§12) 6) Kinase reaction and termination: incubated at 28° C. for a specified period and added 25 μm of stop buffer to stop the reaction.
(§13) 5. Caliper Reading: Collect Data on Caliper.
(§14) 1) Copied conversion data from Caliper program and Converted conversion values to inhibition values: Inhibition rate (%)=(1−OD value of the compound-OD value of the control well)/(OD value of the control empty-OD value of the control well)*100%.
(§15) 2) Fitted the data in XLFit excel add-in version 4.3.1 to give the corresponding IC50 values.

CDK7/CyclinH/MAT1 = CDK7/CyclinH/MAT1 (Homo sapiens, UniProt P50613); assay: Determination of CDK activity (Caliper mobility shift, FAM-P8 peptide): CDK7; conditions: CDK7/CyclinH/MAT1; read-out: CDK7 enzymatic inhibitory activity (IC50)
Procedure: as §1
(§16) CDK and raw materials used here: CDK4/CycD3 (Carna, Cat. No 04-105, Lot. No 10CBS-0429 C, GST-CDK4(1-303end)/GST-CycD3(1-292end)); CDK6/cycD3 (Carna, Cat. No 04-107, Lot. No 09CBS-0622K, GST-CDK6(1-326(end))); CDK1/CyclinB (Millipore, Cat. 14-450k, Lot. No 25729U, His-CDK1+GST-cyclinB); CDK2/CycA2 (Carna, Cat. No 04-103, Lot. No 06CBS-3024, GST-CDK2 (1-298(end))); CDK7/CyclinH/MAT1 (Millipore, Cat. No 14-476M, Lot. No WAB0365-A, His-CDK7+GST-MAT1+cyclinH); CDK9/cyclinTl (Millipore, Cat. No 14-685K, Lot. No. 2476163-A, His-CDK9+cyclinTl); Peptide FAM-P8 (GL Biochem, Cat. No. 112396, Lot. No. P100804-XZ112396); ATP (Sigma, Cat. No. A7699-1G, CAS No. 987-65-5); DMSO (Sigma, Cat. No. D2650, Lot. No. 474382); EDTA (Sigma, Cat. No. E5134, CAS No. 60-00-4); 96-well plate (Corning, Cat. No. 3365, Lot. No. 22008026); 384-well plate (Corning, Cat. No. 3573, Lot. No. 12608008); Staurosporine (Sigma, Cat. No. S4400-1MG, Lot. No. 046K4080).
as §2, §3, §4, §5
(§17) 4) Prepared intermediate plate and transferred the compound of 10 μm concentration from the original plate to the intermediate plate, and then 90 μm of 1× kinase buffer was added and mixed by shaking for 10 min.
(§18) 4) Preparing intermediate plate and transferred the compound of […] concentration from the original plate to the intermediate plate, and then 90 μm of 1× kinase buffer was added and mixed by shaking for 10 min.
(§19) 1) Transferred 5 μm of each compound from the 96-well intermediate plate to a 384-well plate. For example, A1 of the 96-well plate was transferred to A1 and A2 of the 384-well plate. A2 of the 96-well plate was transferred to A3 and A4 of the 384-well plate, and so on.
as §7, §8, §9, §10, §11, §12, §13, §14, §15

CDK4/CycD3 = CDK4/CycD3 (Homo sapiens, UniProt P11802); assay: Determination of CDK activity (Caliper mobility shift, FAM-P8 peptide): CDK4; conditions: CDK4/CycD3; read-out: CDK4 enzymatic inhibitory activity (IC50)
Procedure: as §1, §16, §2
2) 1× Kinase Base Buffer (CDK4).
as §4, §5, §17, §18, §19, §7, §8, §9, §10, §11, §12, §13, §14, §15

CDK2/CycA2 = CDK2/CycA2 (Homo sapiens, UniProt P24941); assay: Determination of CDK activity (Caliper mobility shift, FAM-P8 peptide): CDK2; conditions: CDK2/CycA2; read-out: CDK2 enzymatic inhibitory activity (IC50)
Procedure: as §1, §2
(§20) 1) 1× Kinase Base Buffer (CDK1, 2, and 6).
as §4, §5, §6, §7, §8, §9, §10, §11, §12, §13, §14, §15

CDK6/cycD3 = CDK6/cycD3 (Homo sapiens, UniProt Q00534); assay: Determination of CDK activity (Caliper mobility shift, FAM-P8 peptide): CDK6; conditions: CDK6/cycD3; read-out: CDK6 enzymatic inhibitory activity (IC50)
Procedure: as §1, §16, §2, §20, §4, §5, §17, §18, §19, §7, §8, §9, §10, §11, §12, §13, §14, §15

CDK1/CyclinB = CDK1/CyclinB (Homo sapiens, UniProt P06493); assay: Determination of CDK activity (Caliper mobility shift, FAM-P8 peptide): CDK1; conditions: CDK1/CyclinB; read-out: CDK1 enzymatic inhibitory activity (IC50)
Procedure: as §1, §2, §20, §4, §5, §6, §7, §8, §9, §10, §11, §12, §13, §14, §15

CDK7/CyclinH/MAT1, sequence (P50613 whole entry): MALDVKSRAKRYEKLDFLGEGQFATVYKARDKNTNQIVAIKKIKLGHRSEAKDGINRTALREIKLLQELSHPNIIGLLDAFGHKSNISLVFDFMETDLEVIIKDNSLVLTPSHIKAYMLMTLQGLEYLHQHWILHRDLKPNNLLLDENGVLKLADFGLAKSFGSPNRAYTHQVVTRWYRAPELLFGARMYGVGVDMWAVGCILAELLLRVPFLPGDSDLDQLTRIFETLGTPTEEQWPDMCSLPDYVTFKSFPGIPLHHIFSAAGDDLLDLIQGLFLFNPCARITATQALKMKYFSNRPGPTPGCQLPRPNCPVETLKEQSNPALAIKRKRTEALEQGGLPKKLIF
CDK7/CyclinH/MAT1, sequence (P51946 whole entry partner): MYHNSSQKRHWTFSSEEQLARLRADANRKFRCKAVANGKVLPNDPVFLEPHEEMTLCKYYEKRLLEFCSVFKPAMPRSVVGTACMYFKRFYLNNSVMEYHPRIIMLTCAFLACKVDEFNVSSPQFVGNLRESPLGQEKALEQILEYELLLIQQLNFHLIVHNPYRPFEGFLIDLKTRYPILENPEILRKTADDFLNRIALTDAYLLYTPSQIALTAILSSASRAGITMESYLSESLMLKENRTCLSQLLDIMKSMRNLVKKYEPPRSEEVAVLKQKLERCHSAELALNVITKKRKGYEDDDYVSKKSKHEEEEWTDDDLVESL
CDK7/CyclinH/MAT1, sequence (P51948 whole entry partner): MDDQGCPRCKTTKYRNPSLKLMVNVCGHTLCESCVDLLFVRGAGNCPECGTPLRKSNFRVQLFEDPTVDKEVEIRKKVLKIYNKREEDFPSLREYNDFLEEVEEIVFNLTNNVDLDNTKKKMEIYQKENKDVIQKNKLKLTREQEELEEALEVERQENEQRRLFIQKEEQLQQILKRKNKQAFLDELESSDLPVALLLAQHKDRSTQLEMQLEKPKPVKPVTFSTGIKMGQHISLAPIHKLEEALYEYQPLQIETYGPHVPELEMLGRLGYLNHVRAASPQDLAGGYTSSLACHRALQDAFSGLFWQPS
CDK6/cycD3, sequence (Q00534 whole entry): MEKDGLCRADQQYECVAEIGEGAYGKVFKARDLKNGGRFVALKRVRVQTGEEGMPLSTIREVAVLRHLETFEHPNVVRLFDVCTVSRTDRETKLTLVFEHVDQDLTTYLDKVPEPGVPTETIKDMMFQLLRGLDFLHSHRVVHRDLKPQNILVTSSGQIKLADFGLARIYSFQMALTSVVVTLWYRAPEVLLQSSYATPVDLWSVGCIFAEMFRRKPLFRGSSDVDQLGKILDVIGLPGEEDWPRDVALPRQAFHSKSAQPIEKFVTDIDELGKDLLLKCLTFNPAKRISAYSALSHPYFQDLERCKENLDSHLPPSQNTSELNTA
CDK6/cycD3, sequence (P30281 whole entry partner): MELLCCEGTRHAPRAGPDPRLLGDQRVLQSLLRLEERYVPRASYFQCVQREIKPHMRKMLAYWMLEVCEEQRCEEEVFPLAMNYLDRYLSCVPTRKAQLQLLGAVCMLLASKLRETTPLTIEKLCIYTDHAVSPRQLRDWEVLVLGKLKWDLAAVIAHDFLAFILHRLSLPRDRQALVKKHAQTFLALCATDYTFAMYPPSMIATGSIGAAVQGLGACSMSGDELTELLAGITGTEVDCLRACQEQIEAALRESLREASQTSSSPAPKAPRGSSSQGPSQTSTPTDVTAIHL
CDK4/CycD3, sequence (P11802 whole entry): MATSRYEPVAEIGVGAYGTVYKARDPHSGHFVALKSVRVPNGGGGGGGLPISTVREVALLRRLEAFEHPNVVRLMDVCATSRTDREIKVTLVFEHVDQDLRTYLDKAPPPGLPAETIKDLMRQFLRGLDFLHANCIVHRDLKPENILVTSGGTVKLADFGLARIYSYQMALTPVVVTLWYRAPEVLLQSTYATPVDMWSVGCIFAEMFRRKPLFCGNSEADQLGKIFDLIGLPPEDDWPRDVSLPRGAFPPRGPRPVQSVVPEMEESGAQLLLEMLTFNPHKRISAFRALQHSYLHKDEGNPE
CDK4/CycD3, sequence (P30281 whole entry partner): as the sequence (P30281 whole entry partner) above
CDK1/CyclinB, sequence (P06493 whole entry): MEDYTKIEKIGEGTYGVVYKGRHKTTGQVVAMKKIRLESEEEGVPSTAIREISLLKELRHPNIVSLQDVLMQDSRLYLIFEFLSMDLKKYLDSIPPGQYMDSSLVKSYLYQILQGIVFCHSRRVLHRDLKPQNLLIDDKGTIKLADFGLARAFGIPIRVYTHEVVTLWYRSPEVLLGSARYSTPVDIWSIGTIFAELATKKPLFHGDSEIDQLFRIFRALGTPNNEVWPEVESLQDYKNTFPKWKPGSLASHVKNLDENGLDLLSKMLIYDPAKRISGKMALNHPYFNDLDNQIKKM
CDK1/CyclinB, sequence (P14635 whole entry partner): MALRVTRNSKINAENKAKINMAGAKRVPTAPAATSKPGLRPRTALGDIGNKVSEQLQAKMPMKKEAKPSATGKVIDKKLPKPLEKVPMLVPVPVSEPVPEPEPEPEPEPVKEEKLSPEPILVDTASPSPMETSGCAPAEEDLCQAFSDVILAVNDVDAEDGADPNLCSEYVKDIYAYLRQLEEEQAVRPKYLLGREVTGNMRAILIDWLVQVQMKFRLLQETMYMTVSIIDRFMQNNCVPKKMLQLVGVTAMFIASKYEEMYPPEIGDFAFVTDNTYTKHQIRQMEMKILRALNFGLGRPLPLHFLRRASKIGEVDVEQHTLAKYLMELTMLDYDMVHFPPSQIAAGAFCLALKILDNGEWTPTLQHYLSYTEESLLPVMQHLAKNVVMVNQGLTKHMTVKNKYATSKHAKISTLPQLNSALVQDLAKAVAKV
CDK9/cyclinTl, sequence (P50750 whole entry): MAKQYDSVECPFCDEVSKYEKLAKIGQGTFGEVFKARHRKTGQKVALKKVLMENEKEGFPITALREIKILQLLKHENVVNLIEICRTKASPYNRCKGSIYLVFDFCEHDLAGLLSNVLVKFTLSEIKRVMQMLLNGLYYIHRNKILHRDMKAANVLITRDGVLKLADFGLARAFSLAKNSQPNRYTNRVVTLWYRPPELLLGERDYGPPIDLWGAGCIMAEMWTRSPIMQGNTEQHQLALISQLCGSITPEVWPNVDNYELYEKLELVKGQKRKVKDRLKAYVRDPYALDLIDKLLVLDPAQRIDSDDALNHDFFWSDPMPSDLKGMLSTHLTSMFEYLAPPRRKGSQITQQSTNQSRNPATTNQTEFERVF
CDK9/cyclinTl, sequence (O60563 whole entry partner): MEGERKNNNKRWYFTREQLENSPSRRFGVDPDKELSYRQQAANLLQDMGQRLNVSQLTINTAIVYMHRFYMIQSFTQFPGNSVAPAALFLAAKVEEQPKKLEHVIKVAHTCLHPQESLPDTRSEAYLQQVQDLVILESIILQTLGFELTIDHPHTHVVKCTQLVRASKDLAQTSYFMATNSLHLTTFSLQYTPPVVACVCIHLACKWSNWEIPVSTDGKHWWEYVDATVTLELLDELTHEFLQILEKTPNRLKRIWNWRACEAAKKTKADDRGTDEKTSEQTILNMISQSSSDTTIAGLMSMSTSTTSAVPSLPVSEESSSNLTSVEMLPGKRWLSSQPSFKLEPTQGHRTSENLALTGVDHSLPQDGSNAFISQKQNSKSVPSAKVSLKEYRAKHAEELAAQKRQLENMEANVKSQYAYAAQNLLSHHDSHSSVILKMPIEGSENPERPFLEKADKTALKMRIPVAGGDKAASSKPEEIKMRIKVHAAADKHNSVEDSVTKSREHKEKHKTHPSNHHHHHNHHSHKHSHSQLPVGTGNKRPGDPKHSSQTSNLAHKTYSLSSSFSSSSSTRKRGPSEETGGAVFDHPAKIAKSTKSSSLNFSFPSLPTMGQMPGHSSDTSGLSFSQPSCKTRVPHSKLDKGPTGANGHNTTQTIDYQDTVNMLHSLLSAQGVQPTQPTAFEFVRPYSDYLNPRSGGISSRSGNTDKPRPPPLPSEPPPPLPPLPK

IC50 (CDK9/cyclinTl)	IC50 (CDK7/CyclinH/MAT1)	IC50 (CDK4/CycD3)	IC50 (CDK2/CycA2)	IC50 (CDK6/cycD3)	IC50 (CDK1/CyclinB)	Structure (SMILES)
100 to 500 nM	1000 to 10000 nM	< 100 nM	100 to 500 nM	100 to 500 nM	500 to 1000 nM	CCN1CCC(=C(C)c2ccc(Nc3ncc(F)c(-c4cc(F)c5nc(C)n(C(C)C)c5c4)n3)nc2)CC1 [Example 58, N-(5-(1-(1-ethylpiperidin-4-ylidene)ethyl)pyridin-2-yl)-5-fluoro-4-(4-fluoro-1-isopropyl-2-methyl-1H-benzo[d]imidazol-6-yl)pyrimidin-2-amine]
100 to 500 nM	1000 to 10000 nM	< 100 nM	100 to 500 nM	500 to 1000 nM	500 to 1000 nM	Cc1nc2c(F)cc(-c3nc(Nc4ccc(C=C5CCNCC5)cn4)ncc3F)cc2n1C(C)C [Example 59]
100 to 500 nM	1000 to 10000 nM	< 100 nM	100 to 500 nM	100 to 500 nM	500 to 1000 nM	Cc1nc2c(F)cc(-c3nc(Nc4ccc(C=C5CCN(C)CC5)cn4)ncc3F)cc2n1C(C)C [Example 60]
100 to 500 nM	1000 to 10000 nM	< 100 nM	100 to 500 nM	500 to 1000 nM	500 to 1000 nM	CC(=C1CCNCC1)c1ccc(Nc2ncc(F)c(-c3cc(F)c4nc(C)n(C(C)C)c4c3)n2)nc1 [Example 61]
500 to 1000 nM	1000 to 10000 nM	< 100 nM	100 to 500 nM	500 to 1000 nM	500 to 1000 nM	CC(=C1CCN(C)CC1)c1ccc(Nc2ncc(F)c(-c3cc(F)c4nc(C)n(C(C)C)c4c3)n2)nc1 [Example 62]
100 to 500 nM	10000 to 100000 nM	< 100 nM	100 to 500 nM	100 to 500 nM	1000 to 10000 nM	Cc1nc2c(F)cc(-c3nc(Nc4ccc(C=C5CCN(C(C)C)CC5)cn4)ncc3F)cc2n1C(C)C [Example 64]
100 to 500 nM	1000 to 10000 nM	< 100 nM	< 100 nM	< 100 nM	100 to 500 nM	Cc1nc2c(F)cc(-c3nc(Nc4ccc(C=C5CCN(C6CC6)CC5)cn4)ncc3F)cc2n1C(C)C [Example 66]
100 to 500 nM	1000 to 10000 nM	< 100 nM	< 100 nM	< 100 nM	100 to 500 nM	Cc1nc2c(F)cc(-c3nc(Nc4ccc(C=C5CCN(CCO)CC5)cn4)ncc3F)cc2n1C(C)C [Example 67]
100 to 500 nM	1000 to 10000 nM	< 100 nM	< 100 nM	< 100 nM	100 to 500 nM	COCCN1CCC(=Cc2ccc(Nc3ncc(F)c(-c4cc(F)c5nc(C)n(C(C)C)c5c4)n3)nc2)CC1 [Example 68]
100 to 500 nM	1000 to 10000 nM	< 100 nM	< 100 nM	< 100 nM	100 to 500 nM	Cc1nc2c(F)cc(-c3nc(Nc4ccc(C=C5CCN(CC(F)F)CC5)cn4)ncc3F)cc2n1C(C)C [Example 69]
100 to 500 nM	1000 to 10000 nM	< 100 nM	< 100 nM	< 100 nM	100 to 500 nM	Cc1nc2c(F)cc(-c3nc(Nc4ccc(C=C5CCN(CC(F)(F)F)CC5)cn4)ncc3F)cc2n1C(C)C [Example 70]
100 to 500 nM	1000 to 10000 nM	< 100 nM	< 100 nM	< 100 nM	100 to 500 nM	Cc1nc2c(F)cc(-c3nc(Nc4ccc([C@H](C)C5CCN(C6CC6)CC5)cn4)ncc3F)cc2n1C(C)C [Example 75]
100 to 500 nM	1000 to 10000 nM	< 100 nM	100 to 500 nM	100 to 500 nM	500 to 1000 nM	Cc1nc2c(F)cc(-c3nc(Nc4ccc([C@@H](C)C5CCN(C6CC6)CC5)cn4)ncc3F)cc2n1C(C)C [Example 76]
100 to 500 nM	1000 to 10000 nM	< 100 nM	< 100 nM	< 100 nM	100 to 500 nM	Cc1nc2c(F)cc(-c3nc(Nc4ccc([C@H](C)C5CCN(CCO)CC5)cn4)ncc3F)cc2n1C(C)C [Example 77]
100 to 500 nM	1000 to 10000 nM	< 100 nM	< 100 nM	< 100 nM	100 to 500 nM	COCCCN1CCC([C@@H](C)c2ccc(Nc3ncc(F)c(-c4cc(F)c5nc(C)n(C(C)C)c5c4)n3)nc2)CC1 [Example 81]
100 to 500 nM	1000 to 10000 nM	< 100 nM	< 100 nM	< 100 nM	100 to 500 nM	Cc1nc2c(F)cc(-c3nc(Nc4ccc([C@H](C)C5CCN(CC(F)F)CC5)cn4)ncc3F)cc2n1C(C)C [Example 83]
100 to 500 nM	1000 to 10000 nM	< 100 nM	< 100 nM	< 100 nM	100 to 500 nM	Cc1nc2c(F)cc(-c3nc(Nc4ccc([C@H](C)C5CCN(CC(F)(F)F)CC5)cn4)ncc3F)cc2n1C(C)C [Example 85]
100 to 500 nM	1000 to 10000 nM	< 100 nM	100 to 500 nM	100 to 500 nM	500 to 1000 nM	Cc1nc2c(F)cc(-c3nc(Nc4ccc([C@@H](C)C5CCN(CC(F)(F)F)CC5)cn4)ncc3F)cc2n1C(C)C [Example 86]

— patent US11179391B2, “Compound with kinase inhibitory activity and preparation method and use thereof” (priority 2017, dated 2021)
